A word on the TGI: it is the concentration giving total growth inhibition. Lower therefore signals more potent growth arrest.

The record followed here is PubChem BioAssay (NCI).

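Cultured in 96-well plates, cells were exposed to test compound for 48 hours across five concentrations. TGI is the concentration that stops growth completely.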 A value given as a limit tells only on which side of the number the result lay.

Holding throughout (test): DTP human tumour cell line panel, 48 h
Test [1] has as its system OVCAR-5 ovarian.
Test [2] deals with CCRF-CEM leukemia.
The test system of test [3] is NCI-H460 lung.
Test [4] relates to NCI-H226 lung.
Test [5] deals with LOX IMVI melanoma.
The test system of test [6] is RXF 393 renal.
In test [7] the test system is SK-OV-3 ovarian.
The subject of test [8] is SK-MEL-28 melanoma.
Test [9] concerns MCF7 breast.
For test [10], the system named is HS 578T breast.

`CC1(c2ccc[n+](Cc3ccccc3)c2)OCCO1`: the TGI in test [1], in test [2], in test [3], in [4], in [5] and in [6] was above 100 µM in each case. In test [7], this compound registered a TGI above 100 µM.

With `CCCCCC(C)SC1(C(=O)OC)CC(OC(C)=O)C(NC(C)=O)C([C@H](OC(C)=O)[C@@H](COC(C)=O)OC(C)=O)O1` (some centres not stated), the TGI is above 100 µM in test [1]; above 100 µM in test [8]; above 100 µM in test [9]; above 100 µM in test [3]; 97 µM in [10]; above 100 µM in test [4]. The compound also showed a TGI in [6] above 100 µM.

Consider `C[C@H]1C[C@H]2[C@@H]3C(C)(C)O[C@]4(O)C(=O)[C@]5(O)[C@@H](C)CC[C@H]1[C@]25C(=O)[C@]34C`, for which the TGI in [1] is above 100 µM; in test [2], above 100 µM; in test [9], above 100 µM; in test [3], above 100 µM; in [10], above 100 µM; in test [4], 98.2 µM. Moreover, the TGI in test [5] and in test [7] was above 100 µM each time.

`COc1ccc(-n2c(=O)n(C)c(=O)n2-c2ccc(OC)cc2)cc1`: the TGI in test [1], in test [2], in test [8], in [9], in [3] and in test [10] was above 100 µM each time. The TGI in test [4], in [5] and in test [7] was above 100 µM in each case.

Consider `CCOP(=O)(OCC)C1CC(n2cc(C)c(=O)[nH]c2=O)OC1CO` (configuration not stated), for which the TGI in test [1], in test [2], in test [8], in test [9], in test [3] and in test [10] was above 100 µM each time. The TGI in test [4], in [5] and in test [6] was above 100 µM throughout.

For `OC(CCNCc1ccccc1)c1ccc2ccccc2c1` (configuration not stated), the TGI was 75.4 µM in test [1]; above 100 µM in test [2]; 34 µM in test [8]; 54.3 µM in test [9]; 35.1 µM in test [3]; 47.7 µM in test [10]. The TGI in [4] amounted to 46.7 µM; in test [5] it was 27.2 µM; in [6] it was 37.1 µM.

Take `NCCCN(CCCN)CCN(CCN(CCCN)CCCN)CCN(CCCN)CCCN`: the TGI is above 100 µM in test [1]; above 100 µM in test [8]; above 100 µM in test [9]; above 100 µM in [3]; 58.5 µM in [10]; above 100 µM in [4]. The TGI in [5] and in test [7] was above 100 µM each time.

With `COc1ccc(-c2cc(-c3ccc(Nc4ccnc5cc(Cl)ccc45)cc3)[nH]c(=O)c2C#N)c2ccccc12`, the TGI in test [1] is above 100 µM; in test [2], above 100 µM; in [8], 42.3 µM; in [3], above 100 µM; in [4], above 100 µM; in test [6], 28.3 µM. Also, the total growth inhibition concentration (TGI) in test [7] is 43.7 µM.

Take `NNC(=O)Cn1c2ccc(Br)cc2c2nc3ccccc3nc21`: the TGI in [1], in [8], in test [9], in test [4], in [6] and in [7] was above 100 µM in each case.

With `Cc1ccc2c(c1C)C(=O)/C(=C/c1ccccc1C(=O)O)C2`, the TGI in test [1], in test [2], in [8], in test [9], in [3] and in test [10] was above 100 µM throughout. For the same compound, the TGI in test [4], in test [5] and in test [6] was above 100 µM in each case.

Regarding `CC(C)C(OC(=O)c1ccc(NCc2cc(O)ccc2O)cc1)C(C)C`, the TGI in [1] stood at 6.16 µM; in test [2], 0.589 µM; in [8], 3.23 µM; in test [9], 16.4 µM; in [3] it was 14.7 µM; in test [10], 8.09 µM. Further, the TGI in test [4] stood at 5.47 µM; in test [5] it was 2.31 µM; in test [6], 1.65 µM.

As to `CCOC(=O)C(NC(=O)CC)(Nc1cc(C)on1)C(F)(F)F` (configuration not stated), the TGI in test [1], in [2], in [8], in test [10], in test [5] and in test [6] was above 100 µM throughout.

On to `C(CCCCc1nnc(N2CCCCC2)o1)CCCc1nnc(N2CCCCC2)o1`, for which the TGI in [1], in test [2], in test [8], in test [9], in [3] and in test [4] was above 100 µM throughout. Moreover, the TGI in test [5], in test [6] and in test [7] was above 100 µM throughout.

Turning to `COc1cc(C(C)c2cc3c(cc2OCCO)OCO3)cc(OC)c1OC` (configuration not stated), the TGI in test [1] was above 100 µM; in test [2], above 100 µM; in test [3] it was above 100 µM; in test [4], above 100 µM; in test [5] it was above 100 µM; in test [6] it was 3.43 µM.

With `COc1cc2c(cc1OC)C(Cl)C(c1ccc(Cl)c(Cl)c1)=C2Cl` (configuration not stated), the TGI in test [2] worked out at 16.7 µM; in [8], 32.7 µM; in [3], 16 µM; in test [4], 23.9 µM; in test [5], 5.75 µM; in [7], 40.5 µM.

Consider `COc1ccc(-c2c(C#N)c(S)n(NS(=O)(=O)c3ccc(C)cc3)c(=O)c2C#N)cc1`, for which the TGI in test [1] is 60.7 µM; in test [2] it was 26.8 µM; in [8] it was 63.2 µM; in test [9], above 100 µM; in test [3] it was above 100 µM; in test [4] it was 89.5 µM. Also, the TGI in test [5] is 29.8 µM; in [6] it was 42.5 µM; in test [7] it was above 100 µM.

Consider `COC(=O)C(Cc1ccccc1)NP(=O)(O)OCC1OC(n2cc(F)c(=O)[nH]c2=O)CC1O` (configuration not stated), for which the total growth inhibition concentration (TGI) in test [1], in test [8], in [9], in test [3], in [10] and in test [4] was above 100 µM throughout. Also, the TGI in test [5], in [6] and in test [7] was above 100 µM in each case.

`Nc1ncnc2c1nnn2C1CCC(CP(=O)(O)O)C1` (configuration not stated): the TGI in test [1], in [2], in test [8], in test [9], in [3] and in test [4] was above 100 µM each time. Also, the TGI in [5], in test [6] and in [7] was above 100 µM in each case.

With `COc1ccccc1NC(=O)CC(=O)N1N=C(C)C(N=Nc2ccc(C(=O)O)cc2)C1=O` (configuration not stated), the TGI in [1], in test [2], in [8], in test [9], in test [10] and in test [5] was above 100 µM in each case. Also, the TGI in test [6] is above 100 µM.

As to `CCOC(=O)Cc1cc(OC)c(OC)cc1/C(Cl)=C(\C=O)c1ccc(OC)c(OC)c1`, the TGI in [8] is 65.7 µM; in [3] it was 17.9 µM; in [5], 36.4 µM; in test [6], above 100 µM; in test [7] it was 86 µM.

For `COC1OC2COC1(OC)C1OC(C)(C)OC21` (configuration not stated), the TGI in [1], in test [2], in [8], in test [9], in test [3] and in test [10] was above 100 µM each time. Also, the TGI in test [4], in test [6] and in test [7] was above 100 µM each time.

Regarding `COc1ccc(C(=O)Cc2ccc(Br)cc2)cc1OC`, the TGI in [1], in [2], in test [3], in test [4], in [5] and in [6] was above 100 µM each time. Besides, in test [7], the TGI is above 100 µM.

Regarding `O=c1c2cc(I)ccc2nc(-c2cccs2)n1-c1ccc(O)cc1`, the total growth inhibition concentration (TGI) in test [1] is 30.2 µM; in test [8], 34 µM; in test [9] it was 32.8 µM; in test [3], 52.6 µM; in test [4], 35.9 µM; in test [5] it was 28.5 µM. In addition, in test [6], the TGI was determined as 30.8 µM.

`CCCC(=O)NC(Nc1ccc(S(=O)(=O)Nc2nc(C)cc(C)n2)cc1)(C(F)(F)F)C(F)(F)F`: the TGI in test [1], in test [2], in test [8], in test [3], in test [10] and in [4] was above 100 µM each time. Also, the TGI in test [5], in test [6] and in [7] was above 100 µM in each case.

On to `c1ccc2c(c1)CCc1c-2n(CCN2CCOCC2)c2ccccc12`, for which the TGI is above 100 µM in [1]; 61.5 µM in test [2]; above 100 µM in [8]; above 100 µM in [9]; 92.9 µM in test [3]; above 100 µM in test [10]. In addition, the TGI in [4] was above 100 µM; in test [5] it was above 100 µM; in test [7], 82.9 µM.

Take `COc1cc2cc[n+]3c(C)c4cc(OC)c(OC)cc4c([O-])c3c2cc1OC`: the TGI in test [1] is above 100 µM; in test [2], above 100 µM; in test [8], above 100 µM; in test [3], above 100 µM; in test [4], above 100 µM; in [6] it was 89.9 µM. In test [7], this compound yielded a TGI above 100 µM.

As to `CCN(C(=S)N[C@H](C(=O)N[C@@H](C)C(=O)OC)C(C)C)c1ccccc1`, the TGI in [1], in [2], in test [8], in test [9], in [3] and in [4] was above 100 µM throughout. Moreover, the TGI in test [5], in test [6] and in test [7] was above 100 µM throughout.

As to `COc1ccc(C2N(NC(=O)c3ccncc3)C(=O)CS2(=O)=O)cc1F` (configuration not stated), the TGI in [1], in test [2], in test [8], in [3], in [4] and in test [5] was above 100 µM each time. In addition, the TGI in test [6] and in test [7] was above 100 µM throughout.

For the compound `O=c1[nH]nc(-c2ccccc2)n1/N=C/c1cccnc1`, the TGI in test [1], in test [2], in test [8], in test [9], in test [3] and in test [10] was above 100 µM each time. In addition, the TGI in test [4], in test [5] and in test [6] was above 100 µM in each case.

Turning to `COc1ccc(NC(C)=O)cc1N1C(=O)/C(=C\c2cc(OC)c(OC)c(OC)c2)SC1c1ccccc1` (configuration not stated), the TGI in [1], in [2], in test [8], in [9], in [3] and in [4] was above 100 µM each time. The TGI in test [5], in [6] and in test [7] was above 100 µM throughout.

Turning to `O=C1C(=O)c2ccccc2C(O)=C1CCCc1ccc(Oc2ccccc2)cc1`, the TGI was above 100 µM in test [1]; above 100 µM in test [2]; above 100 µM in test [8]; 41.9 µM in [3]; 47.9 µM in test [4]; 15.3 µM in test [5]. In addition, the TGI was 64.1 µM in test [6] and above 100 µM in [7].

As for `C/C(Nc1ccc(F)cc1)=C1/CCOC1=O`, the TGI in test [2], in test [8], in test [3], in [10], in test [4] and in test [5] was above 100 µM throughout. Besides, in [6], the TGI was above 100 µM.
